Experimental data as given in patent publication US10982219B2, “Guayule with increased rubber production and yield” (The United States of America, as represented by the …, priority 2017, dated 2021).

Key:
Type in all cases: in vivo, Parthenium argentatum
PaAos = assay: qRT-PCR of PaAOS in SA treated soil-grown guayule; conditions: 10 nM SA to soil twice weekly for two months
Experimental: (§1) The effect of SA on guayule PaAos gene expression is tested in wild-type guayule G7-11 plants. SA is added to the growth medium (K0) in tissue culture at different concentrations, 0 nM, 10 nM and 100 nM. Shoot tips are transferred to the growth media, and plants are grown for 8 weeks. The rubber content of the plant tissues is determined by standard procedures (ASE, see Example 3 supra). […] The effect of exogenous 10 nM SA on one month old guayule plants grown in the soil under greenhouse conditions is also examined.

guayule G7-11 plants [1] = assay: Exogenous SA applied to soil of greenhouse guayule, growth and rubber content; conditions: 50 ml of 10 nM SA to soil twice weekly for two months
Experimental: as §1

guayule G7-11 plants [2] = assay: Exogenous SA in tissue culture growth medium, rubber content by ASE; conditions: 8 weeks, versus 0 nM
Experimental: as §1

Question: With `O=C(O)c1ccccc1O` [SA, salicylic acid] as the molecule, how does the “PaAOS expression (qRT-PCR)” value (PaAos) read?
Answer: low expression pattern

Question: And the “height and primary stem diameter” value (guayule G7-11 plants [1]; versus mock or water treated)?
Answer: significant differences in the height and primary stem diameter

Question: What about the rubber content (guayule G7-11 plants [1]; versus mock treated) of the same molecule?
Answer: slightly increases and significantly differs

Question: And the “amount of rubber produced” value (guayule G7-11 plants [2]; 10 nM SA in growth medium)?
Answer: increases the amount of rubber produced in a significant manner

Question: What about the “amount of rubber produced” value (guayule G7-11 plants [2]; 100 nM SA in growth medium) of the same molecule?
Answer: increases the amount of rubber produced in a significant manner
